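48-hour exposure; five concentrations; linearly interpolated endpoints. GI50: concentration for 50% inhibition of growth.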 Calls of active or inactive are those of the source. No stated cut-off is given here; in the data, active = GI50 up to about 1.1 µM and inactive = higher.
What was measured:
Experiment in all cases: NCI-60 cell line screen, 48 h
786-0 = system: 786-0
A498 = system: A498
A549 = system: A549
ACHN = system: ACHN
BT-549 = system: BT-549
CAKI-1 = system: CAKI-1
CCRF-CEM = system: CCRF-CEM
COLO 205 = system: COLO 205
DU-145 = system: DU-145
EKVX = system: EKVX
HCC 2998 = system: HCC 2998
HCT-116 = system: HCT-116
HCT-15 = system: HCT-15
HL-60 = system: HL-60
HOP-62 = system: HOP-62
HOP-92 = system: HOP-92
HT-29 = system: HT-29
Hs-578T = system: Hs-578T
IGROV-1 = system: IGROV-1
K562 = system: K562
KM12 = system: KM12
LOX IMVI = system: LOX IMVI
M14 = system: M14
MCF7 = system: MCF7
MDA-MB-231 = system: MDA-MB-231
MDA-MB-435 = system: MDA-MB-435
MDA-N = system: MDA-N
MOLT-4 = system: MOLT-4
Malme-3M = system: Malme-3M
NCI-H226 = system: NCI-H226
NCI-H23 = system: NCI-H23
NCI-H460 = system: NCI-H460
NCI-H522 = system: NCI-H522
NCI/ADR-RES = system: NCI/ADR-RES
OVCAR-3 = system: OVCAR-3
OVCAR-4 = system: OVCAR-4
OVCAR-5 = system: OVCAR-5
OVCAR-8 = system: OVCAR-8
PC-3 = system: PC-3
RPMI-8226 = system: RPMI-8226
RXF 393 = system: RXF 393
SF-268 = system: SF-268
SF-295 = system: SF-295
SK-MEL-28 = system: SK-MEL-28
SK-MEL-2 = system: SK-MEL-2
SK-MEL-5 = system: SK-MEL-5
SK-OV-3 = system: SK-OV-3
SN12C = system: SN12C
SNB-19 = system: SNB-19
SNB-75 = system: SNB-75
SR = system: SR
SW-620 = system: SW-620
T47D = system: T47D
TK-10 = system: TK-10
U-251 = system: U-251
UACC-257 = system: UACC-257
UACC-62 = system: UACC-62
UO-31 = system: UO-31
SF-539 = system: SF-539

Measured: GI50

NCCP(=O)(O)O
inactive: 786-0 > 100 µM | A498 > 100 µM | A549 > 100 µM | ACHN > 100 µM | BT-549 > 100 µM | CAKI-1 > 100 µM | CCRF-CEM > 100 µM | COLO 205 > 100 µM | DU-145 > 100 µM | EKVX > 100 µM | HCC 2998 > 100 µM | HCT-116 > 100 µM | HL-60 > 100 µM | HOP-62 > 100 µM | HOP-92 > 100 µM | HT-29 > 100 µM | Hs-578T > 100 µM | IGROV-1 > 100 µM | K562 > 100 µM | KM12 > 100 µM | LOX IMVI > 100 µM | M14 > 100 µM | MCF7 > 100 µM | MDA-MB-231 > 100 µM | MDA-MB-435 > 100 µM | MDA-N > 100 µM | MOLT-4 > 100 µM | Malme-3M > 100 µM | NCI-H226 > 100 µM | NCI-H23 > 100 µM | NCI-H460 > 100 µM | NCI-H522 > 100 µM | NCI/ADR-RES > 100 µM | OVCAR-3 > 100 µM | OVCAR-4 > 100 µM | OVCAR-5 > 100 µM | OVCAR-8 > 100 µM | PC-3 > 100 µM | RPMI-8226 > 100 µM | RXF 393 > 100 µM | SF-268 > 100 µM | SF-295 > 100 µM | SK-MEL-28 > 100 µM | SK-MEL-2 > 100 µM | SK-MEL-5 > 100 µM | SK-OV-3 > 100 µM | SN12C > 100 µM | SNB-19 > 100 µM | SNB-75 > 100 µM | SR > 100 µM | SW-620 > 100 µM | T47D > 100 µM | TK-10 > 100 µM | U-251 > 100 µM | UACC-257 > 100 µM | UACC-62 > 100 µM | UO-31 > 100 µM
> 100 µM: HCT-15

C[N+](C)(C)c1ccc(C(N)C(=O)O)cc1 (configuration not stated)
> 100 µM: HCT-15
inactive: 786-0 > 100 µM | A498 > 100 µM | ACHN > 100 µM | BT-549 > 100 µM | CAKI-1 > 100 µM | CCRF-CEM > 100 µM | COLO 205 > 100 µM | DU-145 > 100 µM | EKVX > 100 µM | HCC 2998 > 100 µM | HCT-116 > 100 µM | HL-60 43.7 µM | HOP-62 > 100 µM | HOP-92 > 100 µM | HT-29 > 100 µM | Hs-578T > 100 µM | IGROV-1 > 100 µM | K562 > 100 µM | KM12 > 100 µM | LOX IMVI > 100 µM | M14 > 100 µM | MCF7 > 100 µM | MDA-MB-231 > 100 µM | MDA-MB-435 > 100 µM | MDA-N > 100 µM | Malme-3M > 100 µM | NCI-H226 > 100 µM | NCI-H23 > 100 µM | NCI-H460 > 100 µM | NCI-H522 > 100 µM | NCI/ADR-RES > 100 µM | OVCAR-3 > 100 µM | OVCAR-4 > 100 µM | OVCAR-5 > 100 µM | OVCAR-8 > 100 µM | PC-3 > 100 µM | RPMI-8226 > 100 µM | RXF 393 > 100 µM | SF-268 > 100 µM | SF-295 > 100 µM | SK-MEL-28 > 100 µM | SK-MEL-2 > 100 µM | SK-MEL-5 > 100 µM | SK-OV-3 > 100 µM | SN12C > 100 µM | SNB-19 > 100 µM | SNB-75 > 100 µM | SR > 100 µM | SW-620 > 100 µM | T47D > 100 µM | TK-10 > 100 µM | U-251 > 100 µM | UACC-257 > 100 µM | UACC-62 > 100 µM | UO-31 > 100 µM

COC(=O)/C=C1\C(=O)C=C2[C@@H]3C[C@H]4C[C@H](CC[C@@]4(C)N21)C3(C)NC(C)=O (some centres not stated)
inactive: 786-0 3.51 µM | A498 19 µM | A549 23.6 µM | ACHN 16 µM | BT-549 11.1 µM | CAKI-1 5.64 µM | CCRF-CEM 4.4 µM | COLO 205 5.9 µM | DU-145 10.7 µM | EKVX 11.4 µM | HCC 2998 26.9 µM | HCT-116 8.97 µM | HL-60 5.55 µM | HOP-62 20.7 µM | HOP-92 18 µM | HT-29 8.02 µM | Hs-578T 10.9 µM | IGROV-1 20 µM | K562 7.66 µM | KM12 16 µM | LOX IMVI 17 µM | M14 8.91 µM | MCF7 7.18 µM | MDA-MB-231 26 µM | MDA-MB-435 9.02 µM | MDA-N 11.2 µM | MOLT-4 3.33 µM | NCI-H226 25.5 µM | NCI-H23 23.7 µM | NCI-H460 29.8 µM | NCI-H522 1.42 µM | NCI/ADR-RES 26.5 µM | OVCAR-3 11.8 µM | OVCAR-4 17.6 µM | OVCAR-5 18.1 µM | OVCAR-8 16.6 µM | PC-3 15.1 µM | RPMI-8226 4.06 µM | RXF 393 4.51 µM | SF-268 6.68 µM | SF-295 19.5 µM | SF-539 3.33 µM | SK-MEL-28 3.12 µM | SK-MEL-2 18.4 µM | SK-MEL-5 11.1 µM | SK-OV-3 24.2 µM | SN12C 11.7 µM | SNB-19 25.9 µM | SNB-75 13.2 µM | SR 18.8 µM | SW-620 2.8 µM | T47D 7.23 µM | TK-10 15.7 µM | U-251 17 µM | UACC-257 15.6 µM | UACC-62 17.6 µM | UO-31 19.5 µM
11.5 µM: HCT-15

From ChEMBL document CHEMBL1201862, “PubChem BioAssay data set” (2004)
